Data published in ChEMBL document CHEMBL4811216, “Chemotherapy for human schistosomiasis: how far have we come? What's new? Where do we go from here?” (RSC Med Chem, 2020).

How the values were obtained:
Schistosoma mansoni [1] = test: Antischistosomal activity against Schistosoma mansoni NTS incubated for 72 hrs by microscopic method; format: functional, organism-based
Schistosoma mansoni [2] = test: Antischistosomal activity against adult Schistosoma mansoni incubated for 72 hrs by microscopic method; format: functional, organism-based
Schistosoma mansoni [3] = test: Schistosomicidal-activity against Schistosoma mansoni Puerto-Rican schistosomula incubated for 7 days by trypan blue dye-exclusion test; format: functional, organism-based; details: 168 h
Schistosoma mansoni [4] = test: Antischistosomal activity against Schistosoma mansoni Puerto-Rican infected in BALB/c mouse assessed as worm burden reduction at 300 mg/kg, po BID administered for 2 consecutive days by light microscopic method relative to control; format: functional; parameters: scale not given: the % may be the effect or the level left
Schistosoma mansoni [5] = test: Antischistosomal activity against Schistosoma mansoni BH infected in Balb/c mouse assessed as reduction in worm burden at 400 mg/kg, po measurement after 2 weeks; format: functional; parameters: scale not given: the % may be the effect or the level left
Histone deacetylase 8 [6] = target: T1, Histone deacetylase 8 (Schistosoma mansoni, UniProt A5H660); test: Inhibition of Schistosoma mansoni HDAC8 expressed in Escherichia coli using Fluor de Lys as substrate incubated for 90 mins by fluorescence method
T1 sequence (A5H660 whole entry): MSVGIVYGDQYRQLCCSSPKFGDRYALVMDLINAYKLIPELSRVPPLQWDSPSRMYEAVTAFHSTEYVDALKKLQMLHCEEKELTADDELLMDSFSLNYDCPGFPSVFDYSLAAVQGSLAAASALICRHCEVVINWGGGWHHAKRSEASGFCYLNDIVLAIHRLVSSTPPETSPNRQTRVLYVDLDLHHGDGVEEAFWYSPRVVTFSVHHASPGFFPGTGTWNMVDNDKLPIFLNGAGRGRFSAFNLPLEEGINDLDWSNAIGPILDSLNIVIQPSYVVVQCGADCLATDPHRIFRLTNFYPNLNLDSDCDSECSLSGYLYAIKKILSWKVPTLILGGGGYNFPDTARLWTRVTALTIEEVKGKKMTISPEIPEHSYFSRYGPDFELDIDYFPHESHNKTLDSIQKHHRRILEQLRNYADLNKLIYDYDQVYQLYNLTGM

Histone deacetylase 1 = Histone deacetylase 1 (Homo sapiens, UniProt Q13547); test: Inhibition of human HDAC1 (1 to 482 reidue) expressed in sf9 cells using ZMAL(Cbz-(Ac)Lys-AMC as substrate preincubated for 90 mins followed by trypsin addition and measured after 20 mins by fluorimetric method
Histone deacetylase 1, sequence (Q13547 whole entry): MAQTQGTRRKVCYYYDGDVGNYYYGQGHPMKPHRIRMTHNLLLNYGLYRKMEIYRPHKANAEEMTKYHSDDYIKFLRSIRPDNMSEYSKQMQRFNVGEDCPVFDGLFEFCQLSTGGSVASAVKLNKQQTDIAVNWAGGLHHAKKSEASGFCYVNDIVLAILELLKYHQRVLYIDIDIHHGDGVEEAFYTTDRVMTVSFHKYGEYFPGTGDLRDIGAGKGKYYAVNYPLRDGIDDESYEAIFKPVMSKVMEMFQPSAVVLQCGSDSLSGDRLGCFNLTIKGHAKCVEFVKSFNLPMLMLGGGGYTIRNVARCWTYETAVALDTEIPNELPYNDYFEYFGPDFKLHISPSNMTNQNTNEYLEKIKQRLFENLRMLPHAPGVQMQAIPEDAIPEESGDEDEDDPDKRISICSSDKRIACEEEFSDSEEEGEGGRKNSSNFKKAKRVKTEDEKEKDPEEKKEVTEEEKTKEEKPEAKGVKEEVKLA

[7] = target: T2, Protein deacetylase HDAC6 (Homo sapiens, UniProt Q9UBN7); test: Inhibition of human HDAC6 using ZMAL(Cbz-(Ac)Lys-AMC as substrate preincubated for 90 mins followed by trypsin addition and measured after 20 mins by fluorimetric method
T2 sequence (Q9UBN7 whole entry): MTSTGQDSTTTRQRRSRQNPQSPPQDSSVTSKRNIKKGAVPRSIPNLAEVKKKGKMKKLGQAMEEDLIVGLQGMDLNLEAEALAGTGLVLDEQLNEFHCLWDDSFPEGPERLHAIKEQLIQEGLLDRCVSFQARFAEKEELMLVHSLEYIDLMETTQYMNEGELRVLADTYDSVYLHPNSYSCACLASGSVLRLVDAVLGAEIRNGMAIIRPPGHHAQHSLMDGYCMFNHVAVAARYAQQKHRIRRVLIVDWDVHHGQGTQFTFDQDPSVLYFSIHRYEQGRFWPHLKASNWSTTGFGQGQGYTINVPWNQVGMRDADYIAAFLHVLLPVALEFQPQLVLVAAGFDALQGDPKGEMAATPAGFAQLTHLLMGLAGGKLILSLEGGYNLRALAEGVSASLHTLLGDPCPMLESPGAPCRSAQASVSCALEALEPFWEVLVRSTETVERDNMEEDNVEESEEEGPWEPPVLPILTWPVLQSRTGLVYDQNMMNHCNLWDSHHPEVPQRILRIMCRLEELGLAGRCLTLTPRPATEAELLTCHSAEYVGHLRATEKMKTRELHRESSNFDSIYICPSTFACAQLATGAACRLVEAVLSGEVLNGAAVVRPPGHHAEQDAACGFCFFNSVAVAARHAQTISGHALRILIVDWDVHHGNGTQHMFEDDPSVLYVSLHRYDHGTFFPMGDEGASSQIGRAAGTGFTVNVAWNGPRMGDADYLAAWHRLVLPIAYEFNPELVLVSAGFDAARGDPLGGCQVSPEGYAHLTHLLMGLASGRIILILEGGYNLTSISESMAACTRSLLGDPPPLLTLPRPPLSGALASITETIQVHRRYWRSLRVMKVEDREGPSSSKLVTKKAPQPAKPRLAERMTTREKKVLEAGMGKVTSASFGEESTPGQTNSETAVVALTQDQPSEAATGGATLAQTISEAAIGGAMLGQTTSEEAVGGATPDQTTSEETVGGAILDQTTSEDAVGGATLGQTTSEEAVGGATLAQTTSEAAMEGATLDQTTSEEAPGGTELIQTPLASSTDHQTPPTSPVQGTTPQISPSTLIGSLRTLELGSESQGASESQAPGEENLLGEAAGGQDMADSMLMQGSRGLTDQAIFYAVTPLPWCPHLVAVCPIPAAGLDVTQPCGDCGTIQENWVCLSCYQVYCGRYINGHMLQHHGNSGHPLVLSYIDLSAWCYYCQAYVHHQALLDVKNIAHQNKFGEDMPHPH

Histone deacetylase 8 [8] = target: T3, Histone deacetylase 8 (Homo sapiens, UniProt Q9BY41); test: Inhibition of human HDAC8 using Fluor de Lys as substrate incubated for 90 mins by fluorescence method
T3 sequence (Q9BY41 whole entry): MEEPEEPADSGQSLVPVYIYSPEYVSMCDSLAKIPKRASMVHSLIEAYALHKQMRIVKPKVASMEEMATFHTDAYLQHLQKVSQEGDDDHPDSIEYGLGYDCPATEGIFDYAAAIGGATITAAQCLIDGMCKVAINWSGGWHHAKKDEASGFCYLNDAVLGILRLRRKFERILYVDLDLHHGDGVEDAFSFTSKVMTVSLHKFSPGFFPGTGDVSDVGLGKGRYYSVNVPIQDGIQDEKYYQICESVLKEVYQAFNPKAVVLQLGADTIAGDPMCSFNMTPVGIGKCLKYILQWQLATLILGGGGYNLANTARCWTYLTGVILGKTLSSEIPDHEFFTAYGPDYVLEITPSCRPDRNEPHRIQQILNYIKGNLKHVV

Schistosoma mansoni [9] = test: Schistosomicidal-activity against Schistosoma mansoni schistosomula at 20 uM incubated for 48 hrs by Alamar Blue assay relative to control; format: functional
Schistosoma mansoni [10] = test: Schistosomicidal-activity against Schistosoma mansoni schistosomula incubated for 48 hrs by Alamar Blue assay; format: functional, organism-based
Schistosoma mansoni [11] = test: Schistosomicidal-activity against adult Schistosoma mansoni incubated overnight followed by replacement of medium and measured on day 5 by stereomicroscopy; format: functional, organism-based; details: 120 h
Schistosoma japonicum [12] = test: Antischistosomal activity against juvenile Schistosoma japonicum assessed as reduction in worm vitality at 25 uM incubated for 72 hrs relative to control; format: functional; parameters: scale not given: the % may be the effect or the level left
Schistosoma japonicum [13] = test: Antischistosomal activity against adult Schistosoma japonicum assessed as reduction in worm vitality at >10 uM incubated for 48 hrs relative to control; format: functional; parameters: scale not given: the % may be the effect or the level left; details: dose microM >10
Schistosoma japonicum [14] = test: Antischistosomal activity against Schistosoma japonicum infected in ICR mouse assessed as total worm reduction at 250 mg/kg, po administered as single dose relative to control; format: functional; parameters: scale not given: the % may be the effect or the level left
Schistosoma mansoni [15] = test: Schistosomicidal-activity against Schistosoma mansoni LE assessed as seperation of worm couples at 25 uM measured within 120 hrs relative to control; format: functional
Schistosoma mansoni [16] = test: Antischistosomal activity against male Schistosoma mansoni assessed as worm killing effect at 100 uM measured after 24 hrs by phase-contrast microscopy relative to control; format: functional
Schistosoma mansoni [17] = test: Antischistosomal activity against Schistosoma mansoni infected in Swiss albino mouse assessed as reduction in worm burden at 20 mg/kg, po administered for 5 days relative to control; format: functional; parameters: scale not given: the % may be the effect or the level left; details: time 5 day
Schistosoma mansoni [18] = test: Antischistosomal activity against Schistosoma mansoni infected in Swiss albino mouse assessed as reduction in intestinal tissue egg burden at 20 mg/kg, po administered for 5 days relative to control; format: functional; parameters: scale not given: the % may be the effect or the level left; details: time 5 day
Schistosoma mansoni [19] = test: Potentiation of praziquantel-induced antischistosomal activity against Schistosoma mansoni infected in Swiss albino mouse assessed as worm burden at 20 mg/kg, po administered for 5 days (reference value: 60%); format: functional; details: time 5 day
Schistosoma mansoni [20] = test: Potentiation of praziquantel-induced antischistosomal activity against Schistosoma mansoni infected in Swiss albino mouse assessed as intestinal egg burden at 20 mg/kg, po administered for 5 days (reference value: 67%); format: functional; details: time 5 day
Schistosoma mansoni [21] = test: Antischistosomal activity against adult Schistosoma mansoni LE assessed as worm mortality at 100 ug/ml incubated for 24 hrs by inverted microscopic method relative to control; format: functional
Schistosoma mansoni [22] = test: Antischistosomal activity against adult Schistosoma mansoni LE assessed as reduction in worm vitality measured every 24 hrs by inverted microscopy; format: functional, organism-based
Schistosoma mansoni [23] = test: Antischistosomal activity against Schistosoma mansoni LE schistosomula assessed as reduction in worm vitality measured every 24 hrs by inverted microscopy; format: functional, organism-based
Schistosoma japonicum [24] = test: Antischistosomal activity against Schistosoma japonicum at 10 uM incubated for 72 hrs by inverted microscopic method relative to control; format: functional

SMILES: O=C(Nc1cc(C(F)(F)F)ccc1Cl)c1ccccc1O
- IC50 (Schistosoma mansoni [1]): 0.2 µM
- IC50 (Schistosoma mansoni [2]): 0.6 µM

SMILES: C1CCCCCC2(CCCCC1)OOCCCOO2
- EC50 (Schistosoma mansoni [3]): 0.016 µM
- Activity (Schistosoma mansoni [4]): 63%

SMILES: COc1cc(O)ccc1C(=O)/C=C/c1ccccc1
- Activity (Schistosoma mansoni [5]): 31.8%

SMILES: O=C(/C=C/c1ccccc1Sc1ccc(Cl)cc1)NO
- IC50 (Histone deacetylase 8 [6]): 0.18 µM
- IC50 (Histone deacetylase 1): 7.7 µM
- IC50 [7]: 3.2 µM
- IC50 (Histone deacetylase 8 [8]): 0.18 µM
- Activity (Schistosoma mansoni [9]): 97%
- EC50 (Schistosoma mansoni [10]): 11.8 µM

SMILES: O=C(C1CCCCC1)N1CC(=O)N2CCc3sccc3C2C1 (stereo not given)
- EC50 (Schistosoma mansoni [11]): 0.9 µM

SMILES: O=C(C1CCCCC1)N1CC(=O)N2CCc3c(Br)cccc3C2C1 (stereo not given)
- Activity (Schistosoma japonicum [12]): <10%
- Activity (Schistosoma japonicum [13]): 100%
- Activity (Schistosoma japonicum [14]): 54.3%

SMILES: COc1cc([C@@H]2OC(=O)[C@@H]3[C@H]2C(=O)O[C@H]3c2cc(OC)c(O)c(OC)c2)cc(OC)c1O
- Activity (Schistosoma mansoni [15]): 100%

SMILES: COc1ccc(-c2nc(-c3ccccc3OC)[nH]c2-c2ccc(OC)cc2)cc1
- Activity (Schistosoma mansoni [16]): 33%
- Activity (Schistosoma mansoni [17]): <17%
- Activity (Schistosoma mansoni [18]): <17%
- Activity (Schistosoma mansoni [19]): 88%
- Activity (Schistosoma mansoni [20]): 83%

SMILES: Cc1ccc(-c2cs/c(=N/N=C/CN3C(=O)c4ccccc4C3=O)[nH]2)cc1
- mortality at 100 µg/mL (Schistosoma mansoni [21]): 100%
- EC50 (Schistosoma mansoni [22]): 38.7 µM
- EC50 (Schistosoma mansoni [23]): 9.77 µM

SMILES: CCCCCCCCCCOc1cc2c(O)c(C(=O)NCCN(CC)CC)cnc2cc1OCC
- Activity (Schistosoma japonicum [24]): 100%
